Test results from patent US20060128724A1, “Pyrazole-substituted aminoheteroaryl compounds as protein kinase inhibitors” (AGOURON PHARMACEUTICALS, INC., priority 2004, published 2006).

Each molecule was assayed against T1, c-MET (HGFR) (Homo sapiens, UniProt P08581) (assay: HGFR Continuous-Coupled Spectrophotometric Assay). Details: Met-2 substrate peptide, 50 nM HGFR, 37° C.; read-out: c-Met Ki.
T1 construct: purchased Upstate 14-526
Format: biochemical
From the text: The following in vitro assay may be used to determine the level of activity and effect of the different compounds of the present invention on one or more of the PKs. Similar assays can be designed along the same lines for any PK using techniques well known in the art.
The general procedure is as follows: compounds and kinase assay reagents are introduced into test wells. The assay is initiated by addition of the kinase enzyme. Enzyme inhibitors reduce the measured activity of the enzyme.
In the continuous-coupled spectrophotometric assay the time-dependent production of ADP by the kinase is determined by analysis of the rate of consumption of NADH by measurement of the decrease in absorbance at 340 nm. As the PK produces ADP it is re-converted to ATP by reaction with phosphoenol pyruvate and pyruvate kinase. Pyruvate is also produced in this reaction. Pyruvate is subsequently converted to lactate by reaction with lactate dehydrogenase, which simultaneously converts NADH to NAD.
HGFR Continuous-Coupled Spectrophotometric Assay
This assay analyzes the tyrosine kinase activity of HGFR on the Met-2 substrate peptide, a peptide derived from the activation loop of the HGFR.
• 1. […] Dissolve up in 200 mM HEPES, pH 7.5 at 10 mM stock. • 3. 1 M PEP (phospho-enol-pyruvate) in 200 mM HEPES, pH 7.5 • 4. 100 mM NADH (B-Nicotinamide Adenine Dinucleotide, Reduced Form) in 200 mM HEPES, pH 7.5 • 5. 4 M MgCl2 (Magnesium Chloride) in ddH2O • 6. 1 M DTT (Dithiothreitol) in 200 mM HEPES, pH 7.5 • 7. 15 Units/mL LDH (Lactic Dehydrogenase) • 8. 15 Units/mL PK (Pyruvate Kinase) • 9. 5M NaCl dissolved in ddH2O • 10. Tween-20 (Protein Grade) 10% Solution • 11. 1 M HEPES buffer: (N-[2-Hydroxethyl]piperazine-N-[2-ethanesulfonic acid]) Sodium Salt. Dissolve in ddH2O, adjust pH to 7.5, bring volume to 1 L. Filter at 0.1 μm. • 12. […] 100% DMSO (SIGMA) • 14. […] Beckman DU-650 w/micro cell holders • 18. Beckman 4-position micro cell cuvette Procedure:
Prep Dilution Buffer (DB) for Enzyme (For 30 mL prep) • 1. DB final concentration is 2 mM DTT, 25 mM NaCl2, 5 mM MgCl2, 0.01% Tween-20, and 50 mM HEPES buffer, pH 7.5. • 2. Make up 50 mM HEPES by adding 1.5 mL 1 M HEPES into 28.1 mL of ddH2O. Add rest of the reagents. Into 50 mL conical vial, add 60 μL of 1M DTT, 150 μL 5M NaCl2, 150 μL 1M MgCl2, and 30 μL of 10% Tween-20 to give total volume of 30 mL. • 3. […] Aliquot out DB at 1 mL/tube and label tubes as “DB HGFR” • 5. Note: This can be prepared and stored ahead of time. • 6. Freeze un-used aliquots in microcentrifuge tubes at −20° C. freezer. […] For compound dilution plate, add 4 μL of 10 mM stock into column 1 of plate, and bring volume to 100 μL with 100% DMSO. • 2. Set up the Precision 2000 dilution method. A final concentration of 200 μM compound in 50% DMSO, 100 mM HEPES (1:2 serial dilution). Prep Coupled Enzymatic Buffer:
1. Final concentration in assay:
• 2. For a 10 mL reaction buffer add 10 μL of 1M PEP, 33 μL of 100 mM NADH, 50 μL of 4M MgCl2, 20 μL of 1M DTT, 6 μL of 500 mM ATP, and 500 μL of 10 mM Met-2 peptide into 100 mM HEPES buffer pH 7.5 and vortex/mix. • 3. Add coupling enzymes, LDH and PK, into reaction mix. Mix by gentle inversion. Running Samples
1. Spectrophotometer settings:
• 2. Add 85 μL of CE reaction mix into each well of assay plate. • 3. Add 5 μL of diluted compound into a well of the assay plate. • 4. Add 5 μL of 50% DMSO for negative control into last column of assay plate. • 5. Mix with multi-channel pipettor or orbital shaker. • 6. Pre-incubate for 10 minutes at 37° C. • 7. Add 10 μL of 500 nM HGFR to each well of assay plate; the final HGFR concentration is 50 nM in a total final volume of 100 μL. • 8. Measure activity for 10 minutes at λ=340 nm and 37° C.

T1 sequence (P08581 974-1390 limits assumed): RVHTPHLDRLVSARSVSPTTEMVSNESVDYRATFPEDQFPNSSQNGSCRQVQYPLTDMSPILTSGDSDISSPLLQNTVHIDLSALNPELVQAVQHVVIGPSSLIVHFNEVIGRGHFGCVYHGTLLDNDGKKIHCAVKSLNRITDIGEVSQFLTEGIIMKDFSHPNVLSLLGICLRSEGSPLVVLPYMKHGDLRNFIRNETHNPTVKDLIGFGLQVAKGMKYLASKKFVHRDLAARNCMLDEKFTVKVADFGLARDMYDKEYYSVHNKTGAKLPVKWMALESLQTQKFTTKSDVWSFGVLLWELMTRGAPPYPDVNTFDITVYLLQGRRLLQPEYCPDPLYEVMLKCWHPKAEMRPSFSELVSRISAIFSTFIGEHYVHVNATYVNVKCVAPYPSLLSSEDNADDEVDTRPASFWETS

Row | SMILES | Ki [nM]
1 | CC(C)Cn1cc(-c2cnc(N)c(OC(C)c3c(Cl)ccc(F)c3Cl)c2)cn1 (stereo not shown) [Example 22, 3-[1-(2,6-Dichloro-3-fluoro-phenyl)-ethoxy]-5-(1-isobutyl-1H-pyrazol-4-yl)-pyridin-2-ylamine] | 100
2 | CC(Oc1cc(-c2cnn(CC(C)(C)C)c2)cnc1N)c1c(Cl)ccc(F)c1Cl (stereo not shown) [Example 23, 3-[1-(2,6-Dichloro-3-fluoro-phenyl)-ethoxy]-5-[1-(2,2-dimethyl-propyl)-1H-pyrazol-4-yl]-pyridin-2-ylamine] | 120
3 | CCN(CC)CCNC(=O)C(C)(C)n1cc(-c2cnc(N)c(OC(C)c3c(Cl)ccc(F)c3Cl)c2)cn1 (stereo not shown) [Example 24, 2-(4-{6-Amino-5-[1-(2,6-dichloro-3-fluoro-phenyl)-ethoxy]-pyridin-3-yl}pyrazol-1-yl)-N-(2-diethylamino-ethyl)-isobutyramide] | 220
4 | CC(Oc1cc(-c2cnn(C3CCOC3)c2)cnc1N)c1c(Cl)ccc(F)c1Cl (stereo not shown) [Example 27, 3-[1-(2,6-Dichloro-3-fluoro-phenyl)-ethoxy]-5-[1-(tetrahydro-furan-3-yl)-1H-pyrazol-4-yl]-pyridin-2-ylamine] | 40
5 | CC(Oc1cc(-c2cnn(CC3CC4CCC3O4)c2)cnc1N)c1c(Cl)ccc(F)c1Cl (stereo not shown) [Example 28, 3-[1-(2,6-Dichloro-3-fluoro-phenyl)-ethoxy]-5-[1-(7-oxa-bicyclo[2.2.1]hept-2-ylmethyl)-1H-pyrazol-4-yl]-pyridin-2-ylamine] | 60
6 | CC(Oc1cc(-c2cnn(C(C)(C)C(=O)NCCCO)c2)cnc1N)c1c(Cl)ccc(F)c1Cl (stereo not shown) [Example 32, 2-(4-{6-Amino-5-[1-(2,6-dichloro-3-fluoro-phenyl)-ethoxy]-pyridin-3-yl}-pyrazol-1-yl)-N-(3-hydroxy-propyl)-isobutyramide] | 70
7 | Cc1nn(C(C)(C)C(=O)O)cc1-c1cnc(N)c(OC(C)c2c(Cl)ccc(F)c2Cl)c1 (stereo not shown) [Example 33, 2-(4-{6-Amino-5-[1-(2,6-dichloro-3-fluoro-phenyl)-ethoxy]-pyridin-3-yl}-3-methyl-pyrazol-1-yl)-2-methyl-propionic acid] | 130
8 | COCCNC(=O)C(C)(C)n1cc(-c2cnc(N)c(OC(C)c3c(Cl)ccc(F)c3Cl)c2)cn1 (stereo not shown) [Example 34, 2-(4-{6-Amino-5-[1-(2,6-dichloro-3-fluoro-phenyl)-ethoxy]-pyridin-3-yl}-pyrazol-1-yl)-N-(2-methoxy-ethyl)-isobutyramide] | 90
9 | CC(Oc1cc(-c2cnn(C(C)(C)C(=O)NCCO)c2)cnc1N)c1c(Cl)ccc(F)c1Cl (stereo not shown) [Example 35, 2-(4-{6-Amino-5-[1-(2,6-dichloro-3-fluoro-phenyl)-ethoxy]-pyridin-3-yl}-pyrazol-1-yl)-N-(2-hydroxy-ethyl)-isobutyramide] | 60
10 | Cc1nn(C(C)(C)C(=O)NCCCN(C)C)cc1-c1cnc(N)c(OC(C)c2c(Cl)ccc(F)c2Cl)c1 (stereo not shown) [Example 36, 2-(4-{6-Amino-5-[1-(2,6-dichloro-3-fluoro-phenyl)-ethoxy]-pyridin-3-yl}-3-methyl-pyrazol-1-yl)-N-(3-dimethylamino-propyl)-isobutyramide] | 90
11 | Cc1nn(C(C)(C)C(=O)NCCN2CCCC2)cc1-c1cnc(N)c(OC(C)c2c(Cl)ccc(F)c2Cl)c1 (stereo not shown) [Example 37, 2-(4-{6-Amino-5-[1-(2,6-dichloro-3-fluoro-phenyl)-ethoxy]-pyridin-3-yl}3-methyl-pyrazol-1-yl)-N-(2-pyrrolidin-1-yl-ethyl)-isobutyramide] | 70
12 | CC(Oc1cc(-c2cnn(C3CCN(C(=O)CN(C)C)CC3)c2)cnc1N)c1c(Cl)ccc(F)c1Cl (stereo not shown) [Example 44, 1-[4-(4-{6-Amino-5-[1-(2,6-dichloro-3-fluoro-phenyl)-ethoxy]-pyridin-3-yl}-pyrazol-1-yl)-piperidin-1-yl]-2-dimethylamino-ethanone] | 10
13 | CC(Oc1cc(-c2cnn(C3CCN(CC4CC4)CC3)c2)cnc1N)c1c(Cl)ccc(F)c1Cl (stereo not shown) [Example 45, 5-[1-(1-Cyclopropylmethyl-piperidin-4-yl)-1H-pyrazol-4-yl]-3-[1-(2,6-dichloro-3-fluoro-phenyl)-ethoxy]-pyridin-2-ylamine] | 10

Results, then the molecule that gave them:

Row | Ki [nM] | SMILES
14 | 10 | CC(Oc1cc(-c2cnn(C3CCN(C(C)C)CC3)c2)cnc1N)c1c(Cl)ccc(F)c1Cl (stereo not shown) [Example 38, 3-[1-(2,6-Dichloro-3-fluoro-phenyl)-ethoxy]-5-[1-(1-isopropyl-piperidin-4-yl)-1H-pyrazol-4-yl]-pyridin-2-ylamine]
15 | 10 | CC(Oc1cc(-c2cnn(C3CCN(C)CC3)c2)cnc1N)c1c(Cl)ccc(F)c1Cl (stereo not shown) [Example 39, 3-[1-(2,6-Dichloro-3-fluoro-phenyl)-ethoxy]-5-[1-(1-methyl-piperidin-4-yl)-1H-pyrazol-4-yl]-pyridin-2-ylamine]
16 | 10 | CC(Oc1cc(-c2cnn(C3CCN(C(=O)CO)CC3)c2)cnc1N)c1c(Cl)ccc(F)c1Cl (stereo not shown) [Example 40, 1-[4-(4-{6-Amino-5-[1-(2,6-dichloro-3-fluoro-phenyl)-ethoxy]-pyridin-3-yl}-pyrazol-1-yl)-piperidin-1-yl]-2-hydroxy-ethanone]
17 | 10 | CC(=O)N1CCC(n2cc(-c3cnc(N)c(OC(C)c4c(Cl)ccc(F)c4Cl)c3)cn2)CC1 (stereo not shown) [Example 41, 1-[4-(4-{6-Amino-5-[1-(2,6-dichloro-3-fluoro-phenyl)-ethoxy]-pyridin-3-yl}-pyrazol 1-yl)-piperidin-1-yl]-ethanone]
18 | 20 | CC(Oc1cc(-c2cnn(C3CCN(CC#N)CC3)c2)cnc1N)c1c(Cl)ccc(F)c1Cl (stereo not shown) [Example 42, [4-(4-{6-Amino-5-[1-(2,6-dichloro-3-fluoro-phenyl)-ethoxy]-pyridin-3-yl}-pyrazol-1-yl)-piperidin-1-yl]-acetonitrile]
19 | 10 | CCN1CCC(n2cc(-c3cnc(N)c(OC(C)c4c(Cl)ccc(F)c4Cl)c3)cn2)CC1 (stereo not shown) [Example 43, 3-[1-(2,6-Dichloro-3-fluoro-phenyl)-ethoxy]-5-[1-(1-ethyl-piperidin-4-yl)-1H-pyrazol-4-yl]-pyridin-2-ylamine]
20 | 10 | C[C@@H](Oc1cc(-c2cnn(C3CCN(C)CC3)c2)cnc1N)c1c(Cl)ccc(F)c1Cl [Example 46, 3-[(R)-1-(2,6-Dichloro-3-fluoro-phenyl)-ethoxy]-5-[1-(1-methyl-piperidin-4-yl)-1H-pyrazol-4-yl]-pyridin-2-ylamine]
21 | 4 | C[C@@H](Oc1cc(-c2cnn(C3CCN(C(=O)CO)CC3)c2)cnc1N)c1c(Cl)ccc(F)c1Cl [Example 47, 1-[4-(4-{6-Amino-5-[(R)-1-(2,6-dichloro-3-fluoro-phenyl)-ethoxy]-pyridin-3-yl}-pyrazol-1-yl)-piperidin-1-yl]-2-hydroxy-ethanone]
22 | 20 | CC(Oc1cc(-c2cnn(C3CCC3)c2)cnc1N)c1c(Cl)ccc(F)c1Cl (stereo not shown) [Example 49, 5-(1-Cyclobutyl-1H-pyrazol-4-yl)-3-[1-(2,6-dichloro-3-fluoro-phenyl)-ethoxy]-pyridin-2-ylamine]
